Reference: patent US11083725B2 (priority 2014, dated 2021)

System: NHBE cells
Experiment: Biolog metabolic array: substrate use by NHBE cells with or without CA09 infection
Assay type: cell-based, human
Conditions: for Substrate use, 590 nm absorbance normalized to zero hour, 0 hr: Biolog PMM2, 0 hr; for Substrate use, 590 nm absorbance normalized to zero hour, 1 hr: Biolog PMM2, 1 hr; for Substrate use, 590 nm absorbance normalized to zero hour, 5 hr: Biolog PMM2, 5 hr; for Substrate use, 590 nm absorbance normalized to zero hour, 7 hr: Biolog PMM2, 7 hr
[1] = Control (uninfected) NHBE cells
[2] = Virus (CA09-infected, MOI 1) NHBE cells
[3] = Virus: CA09-infected NHBE cells, MOI 1, Biolog PMM2
[4] = Virus (CA09-infected NHBE cells, MOI 1)

SMILES	590 nm absorbance normalized to zero hour (substrate use), 1 hr [1]	590 nm absorbance normalized to zero hour (substrate use), 2 hr [1]	590 nm absorbance normalized to zero hour (substrate use), 3 hr [1]	590 nm absorbance normalized to zero hour (substrate use), 4 hr [1]	590 nm absorbance normalized to zero hour (substrate use), 6 hr [1]	590 nm absorbance normalized to zero hour (substrate use), 8 hr [1]	590 nm absorbance normalized to zero hour (substrate use), 9 hr [1]	590 nm absorbance normalized to zero hour (substrate use), 10 hr [1]	590 nm absorbance normalized to zero hour (substrate use), 11 hr [1]	Substrate use, 590 nm absorbance normalized to zero hour, 1 hr [1]	Substrate use, 590 nm absorbance normalized to zero hour, 5 hr [1]	Substrate use, 590 nm absorbance normalized to zero hour, 7 hr [1]	590 nm absorbance normalized to zero hour (substrate use), 1 hr [3]	590 nm absorbance normalized to zero hour (substrate use), 2 hr [3]	590 nm absorbance normalized to zero hour (substrate use), 3 hr [3]	590 nm absorbance normalized to zero hour (substrate use), 4 hr [3]	590 nm absorbance normalized to zero hour (substrate use), 5 hr [3]	590 nm absorbance normalized to zero hour (substrate use), 6 hr [3]	590 nm absorbance normalized to zero hour (substrate use), 7 hr [3]	590 nm absorbance normalized to zero hour (substrate use), 8 hr [3]	also measured
OCC1OC(OC2C(CO)OC(OC3C(CO)OC(O)C(O)C3O)C(O)C2O)C(O)C(O)C1O (centres unmarked) [Malto-triose]	2.27	3.36	4.16	4.58	5.62	7.97	7.32	6.88	8.46	2.27	6.09	7.39	2.01	3.05	3.70	4.08	5.20	5.81	6.29	6.78	590 nm absorbance normalized to zero hour (substrate use), 0 hr [1]: 1.00; Substrate use, 590 nm absorbance normalized to zero hour, 0 hr [1]: 1.00; 590 nm absorbance normalized to zero hour (substrate use), 0 hr [2]: 1.00; 590 nm absorbance normalized to zero hour (substrate use), 1 hr [2]: 2.01; 590 nm absorbance normalized to zero hour (substrate use), 2 hr [2]: 3.05; 590 nm absorbance normalized to zero hour (substrate use), 3 hr [2]: 3.70; 590 nm absorbance normalized to zero hour (substrate use), 4 hr [2]: 4.08; 590 nm absorbance normalized to zero hour (substrate use), 5 hr [2]: 5.20; 590 nm absorbance normalized to zero hour (substrate use), 6 hr [2]: 5.81; 590 nm absorbance normalized to zero hour (substrate use), 7 hr [2]: 6.29; 590 nm absorbance normalized to zero hour (substrate use), 8 hr [2]: 6.78; 590 nm absorbance normalized to zero hour (substrate use), 9 hr [2]: 7.44; 590 nm absorbance normalized to zero hour (substrate use), 10 hr [2]: 6.04; 590 nm absorbance normalized to zero hour (substrate use), 11 hr [2]: 6.50; 590 nm absorbance normalized to zero hour (substrate use), 0 hr [3]: 1.00; 590 nm absorbance normalized to zero hour (substrate use), 9 hr [3]: 7.44; 590 nm absorbance normalized to zero hour (substrate use), 10 hr [3]: 6.04; 590 nm absorbance normalized to zero hour (substrate use), 11 hr [3]: 6.50
C[C@@H]1OC(O)[C@@H](O)[C@H](O)[C@@H]1O (stereo partly drawn) [L-Fucose]	0.10	0.20	0.18	0.18	0.26	0.27	0.26	0.24	0.26	0.10	0.22	0.25	0.21	0.28	0.33	0.35	0.42	0.45	0.47	0.50	590 nm absorbance normalized to zero hour (substrate use), 0 hr [1]: 1.00; Substrate use, 590 nm absorbance normalized to zero hour, 0 hr [1]: 1.00; 590 nm absorbance normalized to zero hour (substrate use), 0 hr [4]: 1.00; 590 nm absorbance normalized to zero hour (substrate use), 1 hr [4]: 0.21; 590 nm absorbance normalized to zero hour (substrate use), 2 hr [4]: 0.28; 590 nm absorbance normalized to zero hour (substrate use), 3 hr [4]: 0.33; 590 nm absorbance normalized to zero hour (substrate use), 4 hr [4]: 0.35; 590 nm absorbance normalized to zero hour (substrate use), 5 hr [4]: 0.42; 590 nm absorbance normalized to zero hour (substrate use), 6 hr [4]: 0.45; 590 nm absorbance normalized to zero hour (substrate use), 7 hr [4]: 0.47; 590 nm absorbance normalized to zero hour (substrate use), 8 hr [4]: 0.50; 590 nm absorbance normalized to zero hour (substrate use), 9 hr [4]: 0.54; 590 nm absorbance normalized to zero hour (substrate use), 10 hr [4]: 0.57; 590 nm absorbance normalized to zero hour (substrate use), 11 hr [4]: 0.61; 590 nm absorbance normalized to zero hour (substrate use), 0 hr [3]: 1.00; 590 nm absorbance normalized to zero hour (substrate use), 9 hr [3]: 0.54; 590 nm absorbance normalized to zero hour (substrate use), 10 hr [3]: 0.57; 590 nm absorbance normalized to zero hour (substrate use), 11 hr [3]: 0.61
CC(=O)C(=O)O [Pyruvic Acid]	1.34	1.40	1.54	1.61	1.39	1.57	1.71	1.81	2.49	1.34	1.70	1.52	1.27	0.82	0.94	1.20	1.10	1.09	1.06	0.67	590 nm absorbance normalized to zero hour (substrate use), 1 hr [2]: 1.27; 590 nm absorbance normalized to zero hour (substrate use), 2 hr [2]: 0.82; 590 nm absorbance normalized to zero hour (substrate use), 3 hr [2]: 0.94; 590 nm absorbance normalized to zero hour (substrate use), 4 hr [2]: 1.20; 590 nm absorbance normalized to zero hour (substrate use), 5 hr [2]: 1.10; 590 nm absorbance normalized to zero hour (substrate use), 6 hr [2]: 1.09; 590 nm absorbance normalized to zero hour (substrate use), 7 hr [2]: 1.06; 590 nm absorbance normalized to zero hour (substrate use), 8 hr [2]: 0.67; 590 nm absorbance normalized to zero hour (substrate use), 9 hr [2]: 0.65; 590 nm absorbance normalized to zero hour (substrate use), 10 hr [2]: 0.75; 590 nm absorbance normalized to zero hour (substrate use), 11 hr [2]: 0.61; 590 nm absorbance normalized to zero hour (substrate use), 9 hr [3]: 0.65; 590 nm absorbance normalized to zero hour (substrate use), 10 hr [3]: 0.75; 590 nm absorbance normalized to zero hour (substrate use), 11 hr [3]: 0.61
